Among the data in ChEMBL document CHEMBL5214919, “Discovery of Novel BRD4 Ligand Scaffolds by Automated Navigation of the Fragment Chemical Space” (J Med Chem, 2021) are ΔTm and IC50 values, retold here.

Each structure is given as a SMILES string.

For experiment [1], the target named is T1, Bromodomain-containing protein 4 (Homo sapiens, UniProt O60885). Kind of experiment: Binding affinity to BRD4 (unknown origin) expressed in Escherichia coli BL21 (DE3) assessed as thermal stabilization at 10 uM by SYPRO orange dye based DSF assay.
In experiment [2] the target is T1, Bromodomain-containing protein 4. As to the kind of experiment: Inhibition of BRD4 (unknown origin) expressed in Escherichia coli BL21 (DE3) using [Lys(Ac)5/8/12/16]-histone H4 (1 to 21residues)-GGK as substrate incubated for 30 mins by TR-FRET assay. In general terms: Time-resolved FRET reads energy transfer from a long-lived donor to a nearby acceptor.

As for `Cc1nnc2n1C[C@@H](NC(=O)Cn1cnnn1)CC2`, the ΔTm in experiment [1] was determined as 2.9 °C.
Regarding `Oc1ccc(Cl)cc1Nc1ncnc2nc[nH]c12`, in experiment [1], the ΔTm was found to be 2.4 °C. The same compound yielded an IC50 in experiment [2] of 491 µM.
The compound `Cc1noc(C)c1CSc1nnc(C)n1N` yielded an IC50 in experiment [2] of 191 µM.
Take `COc1cccc(Cc2nnc(N)s2)c1`: the ΔTm in experiment [1] was found to be 1.6 °C.
`Nc1noc2c1c(=O)[nH]c1ccccc12`: the ΔTm in experiment [1] stood at 3.1 °C.
Still for that read-out and setting: the figure for `CCc1nnc2scc(-c3ccccc3)n12` is 3.3 °C.
As to `Cc1noc(N)c1-c1ccccc1`, in experiment [1], the shift in melting temperature (ΔTm) is 4.55 °C. In experiment [2], this compound had an IC50 of 91 µM.
Taken in the same sequence, the figures for `Cc1cc(Cl)ccc1O[C@H](C)c1nnc(N)s1` were 0.8 °C and 79 µM.
With `CCCc1nnc(NC(=O)c2c(C)noc2C)s1`, the ΔTm in experiment [1] stood at 0.9 °C.
For `Cc1nonc1-c1cc2ccccc2[nH]1`, the ΔTm in experiment [1] is 2.6 °C.
On the same count and under the same terms, next, `Cc1n[nH]c2nnc(N)c-2c1C`: 0.9 °C.
In turn, `Cc1noc(C)c1C(=O)Nc1nnc(C2CC2)s1` showed an IC50 in experiment [2] of 86 µM.
For `Cc1cc(SCc2c(C)noc2C)ncn1`, the ΔTm in experiment [1] is 1.8 °C. For the same compound, the IC50 in experiment [2] was 30 µM.
In turn, `Oc1ccccc1-n1c(O)nnc1S` gave an IC50 in experiment [2] of 644 µM.
`Cc1nc(C#N)c(NCc2csnn2)o1`: in experiment [1], the ΔTm stood at 3.4 °C.
Consider `COc1ccc(CNC(=O)CSc2nnc(N)s2)cc1`, for which the thermal shift (ΔTm) in experiment [1] came to 0.9 °C.

By ΔTm is commonly meant the change in melting temperature against a reference sample. As a reminder, the IC50 is the concentration needed to halve the response being measured. A low value points to higher potency.
